According to ChEMBL document CHEMBL3885861, “Open TG-GATES”:

Organism: Rattus norvegicus
Assay: Open TG-GATES - Regimen: Single
Format: toxicity, organism-based, Sprague-Dawley
Set-up: regimen Single, gender Male, age 6 weeks
Conditions: in vivo, po, 0 mg/kg, route gavage, dose level Control; for APTT / Bas / Eos / Fbg / Hb / Ht / Lym / MCH / MCHC / MCV / Mono / Neu / PT / Plat / RBC / Ret / WBC: tissue Blood; for KIDNEY_L / KIDNEY_R / KIDNEY_TOTAL: tissue Kidney; for LIVER: tissue Liver; for ALP / ALT / AST / BUN / CRE / Ca / Cl / DBIL / GLC / IP / K / LDH / Na / PL / RALB / TBIL / TC / TG / TP / gamma-GTP: tissue Plasma

COc1cc([C@@H]2c3cc4c(cc3[C@@H](O[C@@H]3O[C@@H]5CO[C@@H](C)O[C@H]5[C@H](O)[C@H]3O)[C@H]3COC(=O)[C@H]23)OCO4)cc(OC)c1O [ETOPOSIDE]
TERMINAL_BW (3 h): 199.4 g
APTT (3 h): 17.1 s
Bas (3 h): 0%
Eos (3 h): 1.2%
Fbg (3 h): 192.2 mg/dL
Hb (3 h): 13.3 g/dL
Ht (3 h): 39.3%
Lym (3 h): 74.8%
MCH (3 h): 22.4 pg
MCHC (3 h): 33.8%
MCV (3 h): 66.2 fL
Mono (3 h): 8%
Neu (3 h): 15.8%
PT (3 h): 12.2 s
Plat (3 h): 113.5 x10_4/uL
RBC (3 h): 594.2 x10_4/ul
Ret (3 h): 10.6%
WBC (3 h): 85 x10_2/uL
KIDNEY_L (3 h): 1 g
KIDNEY_R (3 h): 1 g
KIDNEY_TOTAL (3 h): 2 g
LIVER (3 h): 9.5 g
ALP (3 h): 857.8 IU/L
ALT (3 h): 32.8 IU/L
AST (3 h): 67.6 IU/L
BUN (3 h): 11.8 mg/dL
CRE (3 h): 0.5 mg/dL
Ca (3 h): 10.4 mg/dL
Cl (3 h): 105 meq/L
DBIL (3 h): 0.034 mg/dL
GLC (3 h): 197.6 mg/dL
IP (3 h): 9.1 mg/dL
K (3 h): 4.7 meq/L
LDH (3 h): 97.4 IU/L
Na (3 h): 141.6 meq/L
PL (3 h): 126.6 mg/dL
RALB (3 h): 3.4 g/dL
TBIL (3 h): 0.3 mg/dL
TC (3 h): 71.8 mg/dL
TG (3 h): 43 mg/dL
TP (3 h): 5.2 g/dL
gamma-GTP (3 h): 1 IU/L
TERMINAL_BW (6 h): 198 g
APTT (6 h): 16.6 s
Bas (6 h): 0%
Eos (6 h): 0.8%
Fbg (6 h): 201.6 mg/dL
Hb (6 h): 13.4 g/dL
Ht (6 h): 39.7%
Lym (6 h): 82.4%
MCH (6 h): 22 pg
MCHC (6 h): 33.7%
MCV (6 h): 65.3 fL
Mono (6 h): 5.6%
Neu (6 h): 11.2%
PT (6 h): 11.9 s
Plat (6 h): 117.8 x10_4/uL
RBC (6 h): 607.8 x10_4/ul
Ret (6 h): 9.8%
WBC (6 h): 93.7 x10_2/uL
KIDNEY_L (6 h): 0.9 g
KIDNEY_R (6 h): 0.9 g
KIDNEY_TOTAL (6 h): 1.8 g
LIVER (6 h): 9.1 g
ALP (6 h): 946.6 IU/L
ALT (6 h): 36 IU/L
AST (6 h): 65.2 IU/L
BUN (6 h): 11.6 mg/dL
CRE (6 h): 0.6 mg/dL
Ca (6 h): 10.6 mg/dL
Cl (6 h): 105 meq/L
DBIL (6 h): 0.016 mg/dL
IP (6 h): 10.5 mg/dL
K (6 h): 4.8 meq/L
LDH (6 h): 65.8 IU/L
Na (6 h): 142.4 meq/L
PL (6 h): 132.8 mg/dL
RALB (6 h): 3.3 g/dL
TBIL (6 h): 0.4 mg/dL
TC (6 h): 72.8 mg/dL
TG (6 h): 68.4 mg/dL
TP (6 h): 5.2 g/dL
gamma-GTP (6 h): 1 IU/L
TERMINAL_BW (9 h): 194.1 g
APTT (9 h): 16.9 s
Bas (9 h): 0%
Eos (9 h): 1.2%
Fbg (9 h): 206 mg/dL
Hb (9 h): 13.4 g/dL
Ht (9 h): 39.7%
Lym (9 h): 74.4%
MCH (9 h): 22.2 pg
MCHC (9 h): 33.9%
MCV (9 h): 65.6 fL
Mono (9 h): 9.8%
Neu (9 h): 15%
PT (9 h): 10.9 s
Plat (9 h): 117.1 x10_4/uL
RBC (9 h): 604.6 x10_4/ul
Ret (9 h): 9.1%
WBC (9 h): 71.2 x10_2/uL
KIDNEY_L (9 h): 0.9 g
KIDNEY_R (9 h): 0.9 g
KIDNEY_TOTAL (9 h): 1.9 g
LIVER (9 h): 8.4 g
ALP (9 h): 752.2 IU/L
ALT (9 h): 29.8 IU/L
AST (9 h): 58.2 IU/L
BUN (9 h): 10.4 mg/dL
CRE (9 h): 0.5 mg/dL
Ca (9 h): 10.6 mg/dL
Cl (9 h): 107.6 meq/L
DBIL (9 h): 0.022 mg/dL
GLC (9 h): 190.6 mg/dL
IP (9 h): 10.1 mg/dL
K (9 h): 4.6 meq/L
LDH (9 h): 59.2 IU/L
Na (9 h): 144.6 meq/L
PL (9 h): 127.4 mg/dL
RALB (9 h): 3.4 g/dL
TBIL (9 h): 0.4 mg/dL
TC (9 h): 71.6 mg/dL
TG (9 h): 28.4 mg/dL
TP (9 h): 5.4 g/dL
gamma-GTP (9 h): 0.8 IU/L
TERMINAL_BW (24 h): 215.6 g
APTT (24 h): 16.3 s
Bas (24 h): 0%
Eos (24 h): 1.2%
Fbg (24 h): 207.6 mg/dL
Hb (24 h): 13.1 g/dL
Ht (24 h): 38.4%
Lym (24 h): 78.2%
MCH (24 h): 22.7 pg
MCHC (24 h): 34.1%
MCV (24 h): 66.6 fL
Mono (24 h): 6%
Neu (24 h): 14.6%
PT (24 h): 11.6 s
Plat (24 h): 107.4 x10_4/uL
RBC (24 h): 578 x10_4/ul
Ret (24 h): 8.8%
WBC (24 h): 94.9 x10_2/uL
KIDNEY_L (24 h): 1 g
KIDNEY_R (24 h): 1 g
KIDNEY_TOTAL (24 h): 2 g
LIVER (24 h): 10.9 g
ALP (24 h): 866 IU/L
ALT (24 h): 38.2 IU/L
AST (24 h): 68.2 IU/L
CRE (24 h): 0.6 mg/dL
Ca (24 h): 10.9 mg/dL
Cl (24 h): 104.6 meq/L
DBIL (24 h): 0.03 mg/dL
GLC (24 h): 196.6 mg/dL
IP (24 h): 7.7 mg/dL
K (24 h): 4.8 meq/L
LDH (24 h): 85.2 IU/L
Na (24 h): 141.4 meq/L
PL (24 h): 161.6 mg/dL
RALB (24 h): 3.6 g/dL
TBIL (24 h): 0.3 mg/dL
TC (24 h): 92.2 mg/dL
TG (24 h): 84.4 mg/dL
TP (24 h): 5.6 g/dL
gamma-GTP (24 h): 1.6 IU/L
